Results: patent US4978761A, “5-hydroxy-2-substituted-2,4,6,7-tetramethyl-2,3-dihydrobenzofurans” (Takeda Chemical Industries, Ltd., priority 1988, dated 1990)

Columns and labels:
12-Lipoxygenase = target: T1, 12-Lipoxygenase (Rattus norvegicus, UniProt F1LQ70); experiment: 12-Lipoxygenase inhibitory action: 12-HETE production in Wistar rat platelets (HPLC); assay type: cell-based; settings: read-out: 12-Lipoxygenase Inhibitory Action, % Inhibition (IE); for inhibition at 100 µM: 10^-4 M; for inhibition at 10 µM: 10^-5 M; for inhibition at 1 µM: 10^-6 M; for inhibition at 0.1 µM: 10^-7 M
T1 construct: from tissue; host or cells: Wistar rat platelets (PRP mixed with PPP, from citrated aortic blood)
T1 sequence (F1LQ70 1-663): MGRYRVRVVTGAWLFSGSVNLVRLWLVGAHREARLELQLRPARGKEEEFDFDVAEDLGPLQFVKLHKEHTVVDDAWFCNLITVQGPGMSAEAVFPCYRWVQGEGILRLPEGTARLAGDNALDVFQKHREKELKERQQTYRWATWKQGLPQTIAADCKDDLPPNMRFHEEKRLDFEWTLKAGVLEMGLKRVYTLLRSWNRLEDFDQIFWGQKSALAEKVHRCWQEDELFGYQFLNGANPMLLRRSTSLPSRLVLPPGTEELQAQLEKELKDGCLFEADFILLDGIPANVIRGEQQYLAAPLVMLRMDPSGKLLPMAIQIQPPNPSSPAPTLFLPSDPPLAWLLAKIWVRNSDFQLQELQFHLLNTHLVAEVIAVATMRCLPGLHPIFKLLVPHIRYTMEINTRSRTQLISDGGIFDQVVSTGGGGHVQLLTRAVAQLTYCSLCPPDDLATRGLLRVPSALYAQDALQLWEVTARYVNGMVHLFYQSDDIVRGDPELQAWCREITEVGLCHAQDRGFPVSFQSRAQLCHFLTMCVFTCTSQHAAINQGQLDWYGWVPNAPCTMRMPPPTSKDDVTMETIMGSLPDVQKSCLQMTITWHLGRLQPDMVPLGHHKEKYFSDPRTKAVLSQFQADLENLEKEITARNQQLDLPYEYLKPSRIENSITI
Procedure: Through the descending aorta of a Wistar rat, 10 ml of blood was collected, under anesthesia, together with citric acid of a volume corresponding to 10%. PRP and PPP were respectively prepared, then they were mixed to make the number of platelets to be 10^9 /ml. To 2.5 μl each of the test solutions prepared in advance (final concentrations of the test compounds : 100 μm, 10 μm, 1 μm and 0.1 μm) was added 0.225 ml of the platelet solution. The respective solutions were kept at 37° C. for 5 minutes, to which was added 25 μl each of arachidonic acid solution (50 μg/ml) , then the respective mixtures were shaken immediately. The reaction was allowed to proceed at 37° C. for 15 minutes, and there was added ethanol (1 ml) to stop the reaction. The reaction mixture was subjected to a centrifuge (2000 rpm) for 5 minutes. One ml of the supernatant was taken, which was mixed with 1 ml of water. 100 μl of this mixture solution was subjected to high performance liquid chromatography to quantitatively determine 12-HETE. The detection was conducted at 240 nm. The calculation of the inhibition rate was conducted in a manner as in the case of 5-HETE.

5-Lipoxygenase = target: T2, 5-Lipoxygenase (Rattus norvegicus, UniProt P12527); experiment: 5-Lipoxygenase inhibiting action: 5-HETE production in rat basophilic leukemia (RBL-1) cells (HPLC); assay type: cell-based; settings: read-out: Effect of Inhibiting 5-Lipoxygenase, % Inhibition (IE); for inhibition at 10 µM: 10^-5 M; for inhibition at 1 µM: 10^-6 M; for inhibition at 0.1 µM: 10^-7 M; for inhibition at 0.01 µM: 10^-8 M
T2 construct: endogenous in cells; host or cells: RBL-1 (rat basophilic leukemia) cells
T2 sequence (P12527 1-673): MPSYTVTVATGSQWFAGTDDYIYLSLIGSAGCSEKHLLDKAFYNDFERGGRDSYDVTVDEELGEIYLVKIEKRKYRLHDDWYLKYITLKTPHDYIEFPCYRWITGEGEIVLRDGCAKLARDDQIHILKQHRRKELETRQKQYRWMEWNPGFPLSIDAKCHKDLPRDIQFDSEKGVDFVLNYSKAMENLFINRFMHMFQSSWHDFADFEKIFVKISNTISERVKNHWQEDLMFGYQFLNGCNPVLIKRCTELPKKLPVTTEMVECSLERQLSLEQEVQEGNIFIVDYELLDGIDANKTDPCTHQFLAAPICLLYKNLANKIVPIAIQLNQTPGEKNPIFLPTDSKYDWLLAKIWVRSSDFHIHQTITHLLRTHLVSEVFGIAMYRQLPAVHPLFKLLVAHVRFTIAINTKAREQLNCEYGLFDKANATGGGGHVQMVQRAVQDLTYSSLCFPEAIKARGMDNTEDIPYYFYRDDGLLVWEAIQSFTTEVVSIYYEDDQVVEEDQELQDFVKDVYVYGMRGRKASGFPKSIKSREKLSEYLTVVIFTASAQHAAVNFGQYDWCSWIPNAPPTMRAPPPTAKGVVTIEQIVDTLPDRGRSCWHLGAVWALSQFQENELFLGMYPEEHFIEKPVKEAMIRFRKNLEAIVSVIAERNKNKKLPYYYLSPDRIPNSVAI
Procedure: In 0.5 ml of MCM (mast cell medium) was suspended 10^7 of rat basophilic leukemia (RBL-1) cells. To this suspension was added the test solution previously prepared [consisting of 0.5 ml of MCM, 50 μg of arachidonic acid, 10 μg of calcium ionophore A-23187 and the test compound (final concentrations 10 μm, 1 μm, 0.1 μm and 0.01 μm)], and the reaction was allowed to proceed at 37° C. for 20 minutes. To the reaction mixture was added 4 ml of ethanol, which was shaken sufficiently, followed by leaving the resultant mixture standing for 10 minutes at room temperatures. The resultant mixture was subjected to a centrifuge (2000 rpm) for 10 minutes, then the supernatant was separated. Thus-separated supernatant was concentrated to dryness under reduced pressure. To the concentrate was added 0.5 ml of a 60% aqueous methanol. A 100μl Portion of this solution was taken and subjected to high performance liquid chromatography to perform quantitative determination of 5-HETE (5-hydroxyeicosatetraenoic acid). UV absorption of 5-HETE at 237 nm was measured with a UV absorption monitor. The inhibitory effect (IE) of 5-HETE is expressed by (1-b/a)×100. In this formula, a means the height of the peak or the area of the peak in the case of presence of no compound (I), while b means the height of the peak or the area of the peak in the case of presence of the compound (I).

Cc1c(C)c2c(c(C)c1O)CC(C)(CC#N)O2 (stereo not drawn) [Compound 5, 5-hydroxy-2-cyanomethyl-2,4,6,7-tetramethyl-2,3-dihydrobenzofuran]
inhibition at 100 µM (12-Lipoxygenase): 97%
inhibition at 10 µM (12-Lipoxygenase): 78%
inhibition at 1 µM (12-Lipoxygenase): 14%
inhibition at 10 µM (5-Lipoxygenase): 100%
inhibition at 1 µM (5-Lipoxygenase): 100%
inhibition at 0.1 µM (5-Lipoxygenase): 57%
inhibition at 0.01 µM (5-Lipoxygenase): 0%

Cc1c(C)c2c(c(C)c1O)CC(C)(CBr)O2 (stereo not drawn) [Compound 6]
inhibition at 100 µM (12-Lipoxygenase): 98%
inhibition at 10 µM (12-Lipoxygenase): 88%
inhibition at 1 µM (12-Lipoxygenase): 16%
inhibition at 0.1 µM (12-Lipoxygenase): 2%
inhibition at 10 µM (5-Lipoxygenase): 100%
inhibition at 1 µM (5-Lipoxygenase): 100%
inhibition at 0.1 µM (5-Lipoxygenase): 52%
inhibition at 0.01 µM (5-Lipoxygenase): 4%

Cc1c(C)c2c(c(C)c1O)CC(C)(C=Cc1ccccc1)O2 (stereo not drawn) [Compound 10]
inhibition at 100 µM (12-Lipoxygenase): 96%
inhibition at 10 µM (12-Lipoxygenase): 92%
inhibition at 1 µM (12-Lipoxygenase): 52%
inhibition at 0.1 µM (12-Lipoxygenase): 45%
inhibition at 10 µM (5-Lipoxygenase): 100%
inhibition at 1 µM (5-Lipoxygenase): 99%
inhibition at 0.1 µM (5-Lipoxygenase): 98%
inhibition at 0.01 µM (5-Lipoxygenase): 12%

Cc1c(C)c2c(c(C)c1O)CC(C)(CCc1ccccc1)O2 (stereo not drawn) [Compound 12]
inhibition at 100 µM (12-Lipoxygenase): 95%
inhibition at 10 µM (12-Lipoxygenase): 82%
inhibition at 1 µM (12-Lipoxygenase): 11%
inhibition at 10 µM (5-Lipoxygenase): 100%
inhibition at 1 µM (5-Lipoxygenase): 100%
inhibition at 0.1 µM (5-Lipoxygenase): 90%
inhibition at 0.01 µM (5-Lipoxygenase): 46%

Cc1c(C)c2c(c(C)c1O)CC(C)(/C=C\Cc1ccccc1)O2 (stereo not drawn) [Compound 15]
inhibition at 100 µM (12-Lipoxygenase): 100%
inhibition at 10 µM (12-Lipoxygenase): 100%
inhibition at 1 µM (12-Lipoxygenase): 99%
inhibition at 0.1 µM (12-Lipoxygenase): 25%

Cc1c(C)c2c(c(C)c1O)CC(C)(/C=C/Cc1ccccc1)O2 (stereo not drawn) [Compound 17]
inhibition at 100 µM (12-Lipoxygenase): 100%
inhibition at 10 µM (12-Lipoxygenase): 99%
inhibition at 1 µM (12-Lipoxygenase): 98%
inhibition at 0.1 µM (12-Lipoxygenase): 22%

Cc1c(C)c2c(c(C)c1O)CC(C)(/C=C/c1ccccc1)O2 (stereo not drawn) [Compound 18]
inhibition at 100 µM (12-Lipoxygenase): 100%
inhibition at 10 µM (12-Lipoxygenase): 100%
inhibition at 1 µM (12-Lipoxygenase): 89%
inhibition at 0.1 µM (12-Lipoxygenase): 18%

Cc1c(C)c2c(c(C)c1O)CC(C)(CCCc1ccccc1)O2 (stereo not drawn) [Compound 20]
inhibition at 100 µM (12-Lipoxygenase): 100%
inhibition at 10 µM (12-Lipoxygenase): 99%
inhibition at 1 µM (12-Lipoxygenase): 97%
inhibition at 0.1 µM (12-Lipoxygenase): 9%

Cc1c(C)c2c(c(C)c1O)CC(C)(/C=C\CCc1ccccc1)O2 (stereo not drawn) [Compound 21]
inhibition at 100 µM (12-Lipoxygenase): 100%
inhibition at 10 µM (12-Lipoxygenase): 100%
inhibition at 1 µM (12-Lipoxygenase): 98%
inhibition at 0.1 µM (12-Lipoxygenase): 21%

Cc1c(C)c2c(c(C)c1O)CC(C)(CCCCc1ccccc1)O2 (stereo not drawn) [Compound 23]
inhibition at 100 µM (12-Lipoxygenase): 100%
inhibition at 10 µM (12-Lipoxygenase): 100%
inhibition at 1 µM (12-Lipoxygenase): 92%
inhibition at 0.1 µM (12-Lipoxygenase): 19%

COc1ccc(/C=C\C2(C)Cc3c(C)c(O)c(C)c(C)c3O2)cc1 (stereo not drawn) [Compound 24]
inhibition at 100 µM (12-Lipoxygenase): 100%
inhibition at 10 µM (12-Lipoxygenase): 99%
inhibition at 1 µM (12-Lipoxygenase): 98%
inhibition at 0.1 µM (12-Lipoxygenase): 13%

COc1ccc(CCC2(C)Cc3c(C)c(O)c(C)c(C)c3O2)cc1 (stereo not drawn) [Compound 26]
inhibition at 100 µM (12-Lipoxygenase): 100%
inhibition at 10 µM (12-Lipoxygenase): 99%
inhibition at 1 µM (12-Lipoxygenase): 28%

COc1cccc(/C=C\C2(C)Cc3c(C)c(O)c(C)c(C)c3O2)c1 (stereo not drawn) [Compound 27]
inhibition at 100 µM (12-Lipoxygenase): 100%
inhibition at 10 µM (12-Lipoxygenase): 100%
inhibition at 1 µM (12-Lipoxygenase): 99%
inhibition at 0.1 µM (12-Lipoxygenase): 19%

COc1cccc(CCC2(C)Cc3c(C)c(O)c(C)c(C)c3O2)c1 (stereo not drawn) [Compound 29]
inhibition at 100 µM (12-Lipoxygenase): 100%
inhibition at 10 µM (12-Lipoxygenase): 99%
inhibition at 1 µM (12-Lipoxygenase): 58%
inhibition at 0.1 µM (12-Lipoxygenase): 7%

Cc1c(C)c2c(c(C)c1O)CC(C)(/C=C\c1ccc(F)cc1)O2 (stereo not drawn) [Compound 30]
inhibition at 100 µM (12-Lipoxygenase): 100%
inhibition at 10 µM (12-Lipoxygenase): 100%
inhibition at 1 µM (12-Lipoxygenase): 98%
inhibition at 0.1 µM (12-Lipoxygenase): 21%

Cc1c(C)c2c(c(C)c1O)CC(C)(CCc1ccc(F)cc1)O2 (stereo not drawn) [Compound 32]
inhibition at 100 µM (12-Lipoxygenase): 99%
inhibition at 10 µM (12-Lipoxygenase): 99%
inhibition at 1 µM (12-Lipoxygenase): 45%
inhibition at 0.1 µM (12-Lipoxygenase): 2%

Cc1ccc(/C=C\C2(C)Cc3c(C)c(O)c(C)c(C)c3O2)cc1 (stereo not drawn) [Compound 33]
inhibition at 100 µM (12-Lipoxygenase): 100%
inhibition at 10 µM (12-Lipoxygenase): 100%
inhibition at 1 µM (12-Lipoxygenase): 28%
inhibition at 0.1 µM (12-Lipoxygenase): 2%

Cc1ccc(CCC2(C)Cc3c(C)c(O)c(C)c(C)c3O2)cc1 (stereo not drawn) [Compound 35]
inhibition at 100 µM (12-Lipoxygenase): 99%
inhibition at 10 µM (12-Lipoxygenase): 99%
inhibition at 1 µM (12-Lipoxygenase): 49%
inhibition at 0.1 µM (12-Lipoxygenase): 8%

CCC/C=C\C1(C)Cc2c(C)c(O)c(C)c(C)c2O1 (stereo not drawn) [Compound 36]
inhibition at 100 µM (12-Lipoxygenase): 100%
inhibition at 10 µM (12-Lipoxygenase): 100%
inhibition at 1 µM (12-Lipoxygenase): 100%
inhibition at 0.1 µM (12-Lipoxygenase): 97%

CCCCCC1(C)Cc2c(C)c(O)c(C)c(C)c2O1 (stereo not drawn) [Compound 37]
inhibition at 100 µM (12-Lipoxygenase): 100%
inhibition at 10 µM (12-Lipoxygenase): 100%
inhibition at 1 µM (12-Lipoxygenase): 31%
inhibition at 0.1 µM (12-Lipoxygenase): 2%

CCCCCCC/C=C\C1(C)Cc2c(C)c(O)c(C)c(C)c2O1 (stereo not drawn) [Compound 38]
inhibition at 100 µM (12-Lipoxygenase): 99%
inhibition at 10 µM (12-Lipoxygenase): 99%
inhibition at 1 µM (12-Lipoxygenase): 90%
inhibition at 0.1 µM (12-Lipoxygenase): 3%

CCCCCCCCCC1(C)Cc2c(C)c(O)c(C)c(C)c2O1 (stereo not drawn) [Compound 39]
inhibition at 100 µM (12-Lipoxygenase): 100%
inhibition at 10 µM (12-Lipoxygenase): 100%
inhibition at 1 µM (12-Lipoxygenase): 32%

CCCCCCCCCCC/C=C\C1(C)Cc2c(C)c(O)c(C)c(C)c2O1 (stereo not drawn) [Compound 40]
inhibition at 100 µM (12-Lipoxygenase): 99%
inhibition at 10 µM (12-Lipoxygenase): 96%
inhibition at 1 µM (12-Lipoxygenase): 48%
inhibition at 0.1 µM (12-Lipoxygenase): 6%

CCCCCCCCCCCCCC1(C)Cc2c(C)c(O)c(C)c(C)c2O1 (stereo not drawn) [Compound 41]
inhibition at 100 µM (12-Lipoxygenase): 99%
inhibition at 10 µM (12-Lipoxygenase): 74%
inhibition at 1 µM (12-Lipoxygenase): 20%
inhibition at 0.1 µM (12-Lipoxygenase): 9%
